Values quoted from earlier work in patent publication US20250025420A1, “TERNARY CO-AMORPHOUS FORMS OF DRUGS, PROTEINS, AND WATER-SOLUBLE POLYMERS” (Zerion Pharma APS, priority 2021, published 2025).

Conditions: stated in Materials

## C=C(C)[C@@H]1CCC(C)=C[C@H]1c1c(O)cc(CCCCC)cc1O [Cannabidiol]
  pKa: 9.7

## C=CC(=O)N1CCC[C@@H](n2nc(-c3ccc(Oc4ccccc4)cc3)c3c(N)ncnc32)C1 [Ibrutinib]
  pKa: 3.74
